Laboratory results published in PubChem BioAssay AID256 (DTP/NCI, 2004).
Values joined by “and” are separate entries in the source; they are usually repeats but may differ in a detail not shown here. Identical values can stand only once. Toxic doses and inconclusive results are not listed. The calls were made as follows: active = survival T/C of 150% or more; inactive = T/C below 125% in these data.

Test system: CD2F1 mice, L1210 leukemia ip, survival T/C
Assay: NCI In Vivo Anticancer Drug Screen. Data for tumor model L1210 Leukemia (intraperitoneal) in CD2F1 (CDF1) mice
Conditions: higher = longer survival
In short: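 Activity against a transplanted murine tumor was judged by comparing the compound group with a vehicle group. The outcome in the treated animals was divided by that in the controls.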

[1] = endpoint: mean survival time, dose: 12.5 mg/kg/injection, schedule: Q01DX009 (ip), vehicle: saline with Tween-80
[2] = endpoint: mean survival time, dose: 25.0 mg/kg/injection, schedule: Q01DX009 (ip), vehicle: saline with Tween-80
[3] = endpoint: mean survival time, dose: 50.0 mg/kg/injection, schedule: Q01DX009 (ip), vehicle: saline with Tween-80
[4] = endpoint: mean survival time, dose: 50.0 mg/kg/injection, schedule: Q01DX009 (ip), vehicle: Klucel (hydroxypropylcellulose) (HPC)
[5] = endpoint: mean survival time, dose: 100.0 mg/kg/injection, schedule: Q01DX009 (ip), vehicle: Klucel (hydroxypropylcellulose) (HPC)
[6] = endpoint: mean survival time, dose: 200.0 mg/kg/injection, schedule: Q01DX009 (ip), vehicle: Klucel (hydroxypropylcellulose) (HPC)
[7] = endpoint: mean survival time, dose: 100.0 mg/kg/injection, schedule: Q04DX003 (ip), vehicle: saline with Tween-80
[8] = endpoint: mean survival time, dose: 100.0 mg/kg/injection, schedule: Q01DX009 (ip), vehicle: saline with Tween-80
[9] = endpoint: mean survival time, dose: 200.0 mg/kg/injection, schedule: Q01DX009 (ip), vehicle: saline with Tween-80
[10] = endpoint: mean survival time, dose: 100.0 mg/kg/injection, schedule: Q01DX001 (ip), vehicle: saline
[11] = endpoint: mean survival time, dose: 200.0 mg/kg/injection, schedule: Q01DX001 (ip), vehicle: saline
[12] = endpoint: mean survival time, dose: 400.0 mg/kg/injection, schedule: Q01DX001 (ip), vehicle: saline

Measured: T/C

CCOC(=O)C(C)C(O)c1ccc(OC)cc1 (configuration not stated)
inactive: [1] 101 % of control | [2] 101 % of control | [3] 93 % of control

COc1cc2c(c(OC)c1OC)-c1cccc(=O)cc1C(NC(C)=O)CC2 (configuration not stated)
inactive: endpoint: median survival time, dose: 2.5 mg/kg/injection, schedule: Q01DX005 (ip), vehicle: saline 107 % of control | endpoint: median survival time, dose: 5.0 mg/kg/injection, schedule: Q01DX005 (ip), vehicle: saline 111 % of control | endpoint: median survival time, dose: 10.0 mg/kg/injection, schedule: Q01DX005 (ip), vehicle: saline 108 % of control and 111 % of control | endpoint: median survival time, dose: 20.0 mg/kg/injection, schedule: Q01DX005 (ip), vehicle: saline 117 % of control and 111 % of control | endpoint: median survival time, dose: 40.0 mg/kg/injection, schedule: Q01DX005 (ip), vehicle: saline 116 % of control and 111 % of control | endpoint: median survival time, dose: 80.0 mg/kg/injection, schedule: Q01DX005 (ip), vehicle: saline 122 % of control | endpoint: median survival time, dose: 160.0 mg/kg/injection, schedule: Q01DX005 (ip), vehicle: saline 122 % of control

CSCCC(NC(=O)COc1ccc(Cl)cc1Cl)C(=O)O (configuration not stated)
inactive: [4] 100 % of control | [5] 89 % of control | [6] 91 % of control

Cc1cc(N2CCCN(C)CC2)nc(/N=C(\N)Nc2ccc(Cl)c(Cl)c2)n1
inactive: [7] 88 % of control

N#CCC(=O)N/N=C/c1ccc2c(c1)CCC2
inactive: [1] 97 % of control | endpoint: mean survival time, dose: 12.5 mg/kg/injection, schedule: Q04DX003 (ip), vehicle: saline with Tween-80 100 % of control | [2] 90 % of control | endpoint: mean survival time, dose: 25.0 mg/kg/injection, schedule: Q04DX003 (ip), vehicle: saline with Tween-80 97 % of control | [3] 90 % of control | endpoint: mean survival time, dose: 50.0 mg/kg/injection, schedule: Q04DX003 (ip), vehicle: saline with Tween-80 88 % of control

O=C(/C=C(\Br)c1ccccc1)c1ccccc1
inactive: endpoint: mean survival time, dose: 100.0 mg/kg/injection, schedule: Q04DX002 (ip), vehicle: saline with Tween-80 91 % of control

O=C(O)CC1CCC1CC(=O)O (configuration not stated)
inactive: [3] 90 % of control | [8] 96 % of control and 100 % of control | [9] 96 % of control and 103 % of control

CCOC(=O)CCC1(C(=O)OC)C(=O)CCCCCCC1C(=O)OC (configuration not stated)
inactive: [8] 102 % of control | [9] 101 % of control | endpoint: mean survival time, dose: 400.0 mg/kg/injection, schedule: Q01DX009 (ip), vehicle: saline with Tween-80 93 % of control

NN(C(=O)c1ccc(Cl)cc1)c1ccccc1
inactive: [7] 95 % of control | endpoint: mean survival time, dose: 200.0 mg/kg/injection, schedule: Q04DX003 (ip), vehicle: saline with Tween-80 92 % of control | endpoint: mean survival time, dose: 400.0 mg/kg/injection, schedule: Q04DX003 (ip), vehicle: saline with Tween-80 97 % of control

CN(C)CC1CCCCC(CN(C)C)C1=O (configuration not stated)
inactive: endpoint: mean survival time, dose: 75.0 mg/kg/injection, schedule: Q01DX001 (ip), vehicle: saline 120 % of control | endpoint: mean survival time, dose: 150.0 mg/kg/injection, schedule: Q01DX001 (ip), vehicle: saline 104 % of control | endpoint: mean survival time, dose: 300.0 mg/kg/injection, schedule: Q01DX001 (ip), vehicle: saline 104 % of control

CCC(C)CCCOC(=O)c1c(Cl)c(Cl)c(Cl)c(Cl)c1C(=O)O (configuration not stated)
inactive: [10] 106 % of control | [11] 112 % of control | [12] 102 % of control

COc1ccc2oc(-c3ccc(Cl)cc3)c(N3CCN(C)CC3)c2c1
inactive: endpoint: median survival time, dose: 15.0 mg/kg/injection, schedule: Q01DX005 (ip), vehicle: saline 104 % of control | endpoint: median survival time, dose: 30.0 mg/kg/injection, schedule: Q01DX005 (ip), vehicle: saline 103 % of control | endpoint: median survival time, dose: 60.0 mg/kg/injection, schedule: Q01DX005 (ip), vehicle: saline 100 % of control | endpoint: median survival time, dose: 120.0 mg/kg/injection, schedule: Q01DX005 (ip), vehicle: saline 107 % of control | endpoint: median survival time, dose: 240.0 mg/kg/injection, schedule: Q01DX005 (ip), vehicle: saline 119 % of control

CCC(C)(O)C(C)=O (configuration not stated)
inactive: endpoint: mean survival time, dose: 12.5 mg/kg/injection, schedule: Q01DX009 (ip), vehicle: Klucel (hydroxypropylcellulose) (HPC) 98 % of control | endpoint: mean survival time, dose: 25.0 mg/kg/injection, schedule: Q01DX009 (ip), vehicle: Klucel (hydroxypropylcellulose) (HPC) 92 % of control | [4] 98 % of control | [5] 98 % of control | [6] 105 % of control

CCOC(=O)CCC(N)C(=O)OCC (configuration not stated)
inactive: [10] 95 % of control | [11] 88 % of control | [12] 93 % of control

COCCNP(=S)(OC)OC
inactive: endpoint: mean survival time, dose: 100.0 mg/kg/injection, schedule: Q01DX001 (ip), vehicle: saline with Tween-80 100 % of control | endpoint: mean survival time, dose: 200.0 mg/kg/injection, schedule: Q01DX001 (ip), vehicle: saline with Tween-80 101 % of control | endpoint: mean survival time, dose: 400.0 mg/kg/injection, schedule: Q01DX001 (ip), vehicle: saline with Tween-80 106 % of control
